Source: patent US10647732B2, “N-annulated perylene diimide dimers with active pyrrolic N—H bonds” (UTI Limited Partnership, priority 2018, dated 2020)
Converted amounts (≈) assume the structure as drawn.

Columns and labels:
[1] = Thermal stability by TGA and DSC; format: physicochemical
Description: Decomposition occurred above 390° C. as determined by thermal gravimetric analysis (TGA, FIG. 4A) and no phase transitions were observed up to 350° C. as determined by differential scanning calorimetry (DSC) (see FIG. 5A). This stability is similar to that of compound 5. TGA of compound 4 is illustrated in FIG. 4B. The TGA were run under N2 at 2° C. per min.
The impact of thermal annealing on the thin-film optical absorption profile is an important factor for use of such dimers. The BOC functionalized derivative 4 was synthesized at least in part to enable facile solution processing of the PDI dimer and generation of 3 in the solid film through thermal deprotection after film formation. FIGS. 5A-5C are DSC plots for compounds 3, 4 and 5, respectively, run under N2 at 10° C. per min. For clarity, the second and third trials of each cooling run and the third trial of each heating run is omitted for all species because the data is indistinguishable from previous runs. During the first heating trial of compound 4, an endothermic peak is clearly present in the plot with an onset occurring at 160° C. This was assumed to be the temperature where cleavage of the protecting group begins to occur and this is confirmed by the fact that this feature is not present in the second heating trial, which has a profile strongly resembling that of the heated NH Dimer 3 and further confirmed by bulk deprotection of compound 4 in an oven at 180° C. The first heating trial of compound 3 features a smooth, downward sloping line. […] This feature is due to a cold-crystallization and has previously been observed in similar molecules.
Thus, films were thermally annealed above this temperature (e.g., at 200° C.) to ensure the BOC protecting group was removed. Films of all three compounds 3-5 were studied.

[2] = Solubility in organic solvents; conditions: organic solvent or mixture
[3] = Cyclic voltammetry in dichloromethane solution; format: physicochemical
Description: The electron affinity, 3.8 eV, and ionization potential, 5.8 eV, were determined from the onset of reduction (ca. −1.0V) and oxidation (ca. 1.0V), respectively, using a conversion value of 4.8. These values are similar to those of previously reported PDI dimers and indicate that compound 3 is suitable for use as an electron acceptor and transporting material in organic electronic devices. An analogous normalized CV plot of compound 4 is provided in FIG. 2B, where no oxidation is observed due to the electron withdrawing nature of the BOC group.
Cyclic Voltammetry (CV): All electrochemical measurements were performed using a CH Instruments potentiostat in a standard three-electrode configuration equipped with a silver wire pseudo-reference, platinum wire counter electrode and glassy carbon working electrode. The cyclic voltammetry experiments were performed in an anhydrous solution of dichloromethane (CH2Cl2) with ˜0.1 M tetrabutylammonium-hexafluorophosphate (TBAPF6) supporting electrolyte. Samples were scanned at a rate of 100 mV/s following a dry N2 purge to deoxygenate the solution, unless otherwise noted. Solution CV measurements were carried out with a sample concentration of ˜0.5 mg/mL in CH2Cl2, unless otherwise noted. Estimations of the energy levels were obtained by correlating the onset (Eox Fc/Fc+, Ered Fc/Fc+) to the normal hydrogen electrode (NHE), assuming a HOMO energy level of 4.80 eV for Fc/Fc+: E(HOMO)=−(Eox+4.80), E(LUMO)=−(Ered+4.80) UV-Visible Spectroscopy (UV/vis): All absorption measurements were recorded using an Agilent Technologies Cary 60 UV-vis spectrometer at room temperature. All solution UV/vis experiments were run in chloroform (CHCl3) using 2 mm quartz cuvettes and diluted 1% wt/v solutions, unless otherwise noted. Thin-films were prepared by spin-coating 1% wt/v solutions from CHCl3 onto Corning glass micro slides, unless otherwise noted. Prior to use, glass slides were cleaned with soap and water, acetone and isopropanol, and followed by UV/ozone treatment using a Novascan UV/ozone cleaning system.

physchem = conditions: organic solvent or mixture

In the case of `CCC(CC)n1c(=O)c2ccc3c4c(-c5cc6c(=O)n(C(CC)CC)c(=O)c7cc8c9c(c5c5ccc%10c(=O)n(C(CC)CC)c(=O)c%11cc(c9c5c%10%11)n8C(=O)OC(C)(C)C)c67)cc5c(=O)n(C(CC)CC)c(=O)c6cc7c(c4c56)c4c3c2c(cc4n7C(=O)OC(C)(C)C)c1=O` [Compound 4, tPDI2N—BOC], the “onset of endothermic peak (cleavage of the protecting group begins)” value ([1]; DSC first heating trial, under N2 at 10° C. per min) is reported as 160 °C and the “loss of the BOC group” value ([1]; TGA and DSC) is reported as about 170 °C.

For `CCCCCCn1c2cc3c(=O)n(C(CC)CC)c(=O)c4ccc5c6c(-c7cc8c(=O)n(C(CC)CC)c(=O)c9cc%10c%11c(c7c7ccc%12c(=O)n(C(CC)CC)c(=O)c%13cc(c%11c7c%12%13)n%10CCCCCC)c89)cc7c(=O)n(C(CC)CC)c(=O)c8cc1c(c6c78)c2c5c43` [Compound 5, tPDI2N-Hex], the solubility [2] was over 50000 µg/mL.

With `CCC(CC)n1c(=O)c2ccc3c4c(-c5cc6c(=O)n(C(CC)CC)c(=O)c7cc8[nH]c9cc%10c(=O)n(C(CC)CC)c(=O)c%11ccc%12c5c(c67)c8c9c%12c%11%10)cc5c(=O)n(C(CC)CC)c(=O)c6cc7[nH]c8cc(c1=O)c2c3c8c7c4c56` [Compound 3, tPDI2N—H] the “oxidation waves E1/2” value ([3]; dichloromethane solution, hexafluorophosphate electrolyte) was 1.1 V vs. Fc/Fc+, the ionization potential ([3]; from onset of oxidation (ca. 1.0V), conversion value of 4.8) was 5.8 eV and the electron affinity ([3]; from onset of reduction (ca. -1.0V), conversion value of 4.8) was 3.8 eV. The decomposition temperature ([1]; TGA under N2 at 2° C. per min) was “above 390 °C” and the solubility (physchem) was about 5000 µg/mL (≈ 4.61 mM).
